Tests used:
Format in all cases: biochemical
[1] = test system: Dopamine uptake (crude synaptosomal preparation); assay: Uptake of 3H-dopamine in crude synaptosomal preparations of rat hypothalamus and striatum; conditions: at 10^-5 (Molar by title), rat synaptosomes, mean of triplicate assay with S.E.M. < ±5%
Experimental: (§1) Activity Studies Uptake of ^3 H-Biogenic Amines in Crude Synaptosomal Preparations of Rat Hypothalamus and Striatum.
(§2) A 0.5 mL aliquot of a crude synaptosomal preparation prepared according to the technique of Ferris et al., J. Pharm. Exp. Ther., 181, 407 (1972) and Patrick et al., J. Pharm. Exp. Ther., 241, 152 (1987) was incubated in a standard incubation medium containing 10 μM iproniazid, 1 μM ascorbate and […] of either [^3 H]dopamine, [^3 H]1-norepinephrine or [^3 H]serotonin. Final volumes were 3 mL.
(§3) All incubations were conducted for 3 minutes under an atmosphere of 95% O2 -5% CO2. The uptake at 0° C. and 37° C. was determined in each experiment and the difference between the two determinations represented the accumulation of [^3 H]amine by the temperature-dependent uptake process. Test compounds were dissolved in the standard incubation medium and preincubated with the crude synaptosomal preparation for 5 mintes, before the addition of the labeled substrate.
(§4) Reactions were stopped by the addition of 2 mL of ice-cold 0.32M sucrose containing 25 mM Tris buffer, pH 7.4, and rapid cooling in an ice-bath. Samples were centrifuged at 49,600×g for 10 minutes. The resulting pellet was washed with 5 mL of 0.9% saline and again centrifuged. […] A 1 mL aliquot of the supernatant was taken for determination of radioactivity.

[2] = test system: Serotonin uptake (crude synaptosomal preparation); assay: Uptake of 3H-serotonin in crude synaptosomal preparations of rat hypothalamus and striatum; conditions: rat hypothalamus/striatum synaptosomes, 5 min preincubation, 3 min incubation, 37° C. minus 0° C. uptake, read-out: IC50 (Molar) for Inhibition of Biogenic Amine Uptake, Serotonin
Experimental: as §1, §2, §3, §4

[3] = test system: Norepinephrine uptake (crude synaptosomal preparation); assay: Uptake of 3H-norepinephrine in crude synaptosomal preparations of rat hypothalamus and striatum; conditions: [3H]1-norepinephrine, rat hypothalamus/striatum synaptosomes, 5 min preincubation, 3 min incubation, 37° C. minus 0° C. uptake; read-out: IC50 (Molar) for Inhibition of Biogenic Amine Uptake, Norepinephrine
Experimental: as §1, §2, §3, §4

Compound	Percent inhibition of Dopamine uptake [1]	IC50 [2]	IC50 [3]
5-Chloro-2-((2-((methylamino)methyl)phenyl)thio)benzyl Alcohol [Example 5]	38%	21 nM	110 nM
CN(C)Cc1ccccc1Sc1ccc(Cl)cc1CO.Cl [Example 2, 5-chloro-2-((2-((dimethylamino)methyl)phenyl)thio)benzyl alcohol hydrochloride]	15%	2.1 nM	55 nM

— patent publication US5104897A, “Medical uses of halogen substituted diphenylsulfides” (Burroughs Wellcome Co., priority 1989, dated 1992)
